Consider two molecules from PubChem BioAssay AID504501 (Sanford-Burnham Center for Chemical Genomics, 2011).

One may read the IC50 as the concentration that gives 50% inhibition.

The target of the assay is Sentrin-specific protease 8 (Homo sapiens) (UniProt Q96LD8). Put plainly: SENP8 protease inhibitors, SAR follow-up, biochemical, luminescence (AID 504501). The settings on record: recombinant SENP8 enzyme, luminescent protease assay.
Sentrin-specific protease 8 (Homo sapiens), sequence (Q96LD8 whole entry, looked up): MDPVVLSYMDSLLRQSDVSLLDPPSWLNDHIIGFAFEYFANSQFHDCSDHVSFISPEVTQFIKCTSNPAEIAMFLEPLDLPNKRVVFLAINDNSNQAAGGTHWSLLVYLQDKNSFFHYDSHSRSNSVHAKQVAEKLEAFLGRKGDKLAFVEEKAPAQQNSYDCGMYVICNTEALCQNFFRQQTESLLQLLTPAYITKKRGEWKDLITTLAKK

In the case of `Cc1cccc(C(=O)Nc2scc(-c3ccc(Br)cc3)c2C(=O)O)c1`, the IC50 was 3.75 µM. The value for `Fc1ccc(COc2ccc(C(=S)N3CCCC3)cc2)cc1` was 2.5 µM.
